Test results: patent US10526316B2, “Quinoxaline and pyridopyrazine derivatives as PI3Kβ inhibitors” (Janssen Pharmaceutica NV, priority 2015, dated 2020)
Where two headings read alike, the source gives them in different places.

How the values were obtained:
[1] = system: Akt phosphorylated at Thr308 in PC-3 cells; test: Cellular assay: phosphorylation of Akt at Thr308 in PC-3 cells (MSD ELISA); type: cell-based; conditions: Homo sapiens, PC-3, 1 h, read-out: IC50 pAkt_Thr308
In short: (§1)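 Electrochemiluminescent sandwich ELISA read-out: phospho-specific capture (Ser473 or Thr308), Sulfo-tag anti-total Akt detection, signal proportional to phospho-Akt. Cells treated 60 min at 37° C with compound, DMSO 0.3%. IC50 fitted from five concentrations.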

[2] = system: Akt phosphorylated at Ser473 in PC-3 cells; test: Cellular assay: phosphorylation of Akt at Ser473 in PC-3 cells (MSD ELISA); type: cell-based; conditions: Homo sapiens, PC-3, 1 h, read-out: IC50 pAkt_S473
In short: as §1

[3] = molecular target: T1, kinase enzymes (Homo sapiens, UniProt P42345); test: Enzyme binding assay (KINOMEscan, DiscoveRx), further kinases of Table A; conditions: MTOR_h
T1 construct: purchased DiscoveRx Corporation, San Diego (contract service, KINOMEscan)
In short: (§2)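 KINOMEscan readout; values are kinase binding affinities.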

[4] = molecular target: T2, kinase enzymes (Homo sapiens, UniProt P42336); test: as above; conditions: PIK3Cα_h
T2 construct: purchased DiscoveRx Corporation, San Diego (contract service, KINOMEscan)
T2 sequence (P42336 whole entry): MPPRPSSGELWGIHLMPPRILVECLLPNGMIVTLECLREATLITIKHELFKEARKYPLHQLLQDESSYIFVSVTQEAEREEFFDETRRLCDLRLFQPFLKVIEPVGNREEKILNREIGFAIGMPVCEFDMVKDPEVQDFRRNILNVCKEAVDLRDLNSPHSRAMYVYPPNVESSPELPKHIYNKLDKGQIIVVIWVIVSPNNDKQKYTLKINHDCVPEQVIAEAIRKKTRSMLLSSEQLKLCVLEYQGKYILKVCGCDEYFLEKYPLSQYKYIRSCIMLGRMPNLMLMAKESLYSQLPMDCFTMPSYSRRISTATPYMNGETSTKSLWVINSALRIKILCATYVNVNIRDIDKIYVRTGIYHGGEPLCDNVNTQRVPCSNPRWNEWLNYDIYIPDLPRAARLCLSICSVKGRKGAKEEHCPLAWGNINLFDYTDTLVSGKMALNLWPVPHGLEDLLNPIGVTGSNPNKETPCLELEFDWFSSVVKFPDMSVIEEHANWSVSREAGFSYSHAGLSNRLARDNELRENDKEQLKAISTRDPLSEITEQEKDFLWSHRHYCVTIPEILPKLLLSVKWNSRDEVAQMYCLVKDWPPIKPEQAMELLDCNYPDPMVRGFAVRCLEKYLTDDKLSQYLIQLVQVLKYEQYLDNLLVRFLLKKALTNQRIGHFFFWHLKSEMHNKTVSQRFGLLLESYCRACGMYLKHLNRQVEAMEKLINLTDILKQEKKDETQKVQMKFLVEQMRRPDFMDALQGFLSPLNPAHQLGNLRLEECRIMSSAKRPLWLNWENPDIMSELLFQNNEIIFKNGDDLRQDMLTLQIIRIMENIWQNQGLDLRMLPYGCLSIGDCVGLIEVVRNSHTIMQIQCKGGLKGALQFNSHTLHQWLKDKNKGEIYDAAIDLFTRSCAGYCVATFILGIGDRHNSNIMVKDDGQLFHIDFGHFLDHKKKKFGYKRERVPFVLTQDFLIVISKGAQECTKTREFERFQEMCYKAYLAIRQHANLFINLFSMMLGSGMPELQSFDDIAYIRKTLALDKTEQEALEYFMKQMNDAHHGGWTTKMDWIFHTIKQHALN
In short: as §2

[5] = molecular target: T3, kinase enzymes (Homo sapiens, UniProt P48736); test: as above; conditions: PIK3Cγ_h
T3 construct: purchased DiscoveRx Corporation, San Diego (contract service, KINOMEscan)
T3 sequence (P48736 whole entry): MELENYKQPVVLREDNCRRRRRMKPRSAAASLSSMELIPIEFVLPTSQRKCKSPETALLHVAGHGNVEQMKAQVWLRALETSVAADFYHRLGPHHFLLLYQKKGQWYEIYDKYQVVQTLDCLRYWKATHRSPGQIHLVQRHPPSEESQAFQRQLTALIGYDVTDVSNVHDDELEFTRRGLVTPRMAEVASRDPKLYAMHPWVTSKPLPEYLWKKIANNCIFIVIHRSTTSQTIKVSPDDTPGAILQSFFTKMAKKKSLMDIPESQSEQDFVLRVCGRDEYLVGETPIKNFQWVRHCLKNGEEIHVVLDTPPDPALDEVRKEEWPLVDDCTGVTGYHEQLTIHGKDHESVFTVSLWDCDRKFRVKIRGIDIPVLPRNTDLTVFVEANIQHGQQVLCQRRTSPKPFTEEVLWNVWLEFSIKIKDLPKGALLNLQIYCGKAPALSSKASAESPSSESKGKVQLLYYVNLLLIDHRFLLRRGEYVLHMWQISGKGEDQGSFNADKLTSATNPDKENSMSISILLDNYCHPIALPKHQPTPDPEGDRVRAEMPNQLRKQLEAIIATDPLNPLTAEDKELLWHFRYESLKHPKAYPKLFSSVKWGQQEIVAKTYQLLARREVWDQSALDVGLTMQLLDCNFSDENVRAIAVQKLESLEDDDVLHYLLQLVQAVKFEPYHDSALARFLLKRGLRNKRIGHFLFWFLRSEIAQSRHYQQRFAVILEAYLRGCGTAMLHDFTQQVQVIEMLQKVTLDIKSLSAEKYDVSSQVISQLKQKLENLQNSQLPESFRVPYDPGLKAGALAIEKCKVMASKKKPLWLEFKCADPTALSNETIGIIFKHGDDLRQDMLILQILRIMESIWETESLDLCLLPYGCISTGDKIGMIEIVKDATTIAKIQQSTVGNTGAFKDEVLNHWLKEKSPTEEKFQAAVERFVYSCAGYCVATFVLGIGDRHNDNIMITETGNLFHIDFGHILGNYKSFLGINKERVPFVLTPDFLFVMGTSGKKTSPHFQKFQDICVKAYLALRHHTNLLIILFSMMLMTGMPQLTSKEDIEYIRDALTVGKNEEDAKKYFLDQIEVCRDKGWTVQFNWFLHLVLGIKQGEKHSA
In short: as §2

[6] = molecular target: T4, PI3Kβ (Homo sapiens, UniProt P42338); test: Enzyme binding assay (KINOMEscan, DiscoveRx); conditions: PIK3Cβ_h, read-out: Kd PIK3Cβ_h
T4 construct: purchased DiscoveRx Corporation, San Diego (contract service, KINOMEscan)
T4 sequence (P42338 whole entry): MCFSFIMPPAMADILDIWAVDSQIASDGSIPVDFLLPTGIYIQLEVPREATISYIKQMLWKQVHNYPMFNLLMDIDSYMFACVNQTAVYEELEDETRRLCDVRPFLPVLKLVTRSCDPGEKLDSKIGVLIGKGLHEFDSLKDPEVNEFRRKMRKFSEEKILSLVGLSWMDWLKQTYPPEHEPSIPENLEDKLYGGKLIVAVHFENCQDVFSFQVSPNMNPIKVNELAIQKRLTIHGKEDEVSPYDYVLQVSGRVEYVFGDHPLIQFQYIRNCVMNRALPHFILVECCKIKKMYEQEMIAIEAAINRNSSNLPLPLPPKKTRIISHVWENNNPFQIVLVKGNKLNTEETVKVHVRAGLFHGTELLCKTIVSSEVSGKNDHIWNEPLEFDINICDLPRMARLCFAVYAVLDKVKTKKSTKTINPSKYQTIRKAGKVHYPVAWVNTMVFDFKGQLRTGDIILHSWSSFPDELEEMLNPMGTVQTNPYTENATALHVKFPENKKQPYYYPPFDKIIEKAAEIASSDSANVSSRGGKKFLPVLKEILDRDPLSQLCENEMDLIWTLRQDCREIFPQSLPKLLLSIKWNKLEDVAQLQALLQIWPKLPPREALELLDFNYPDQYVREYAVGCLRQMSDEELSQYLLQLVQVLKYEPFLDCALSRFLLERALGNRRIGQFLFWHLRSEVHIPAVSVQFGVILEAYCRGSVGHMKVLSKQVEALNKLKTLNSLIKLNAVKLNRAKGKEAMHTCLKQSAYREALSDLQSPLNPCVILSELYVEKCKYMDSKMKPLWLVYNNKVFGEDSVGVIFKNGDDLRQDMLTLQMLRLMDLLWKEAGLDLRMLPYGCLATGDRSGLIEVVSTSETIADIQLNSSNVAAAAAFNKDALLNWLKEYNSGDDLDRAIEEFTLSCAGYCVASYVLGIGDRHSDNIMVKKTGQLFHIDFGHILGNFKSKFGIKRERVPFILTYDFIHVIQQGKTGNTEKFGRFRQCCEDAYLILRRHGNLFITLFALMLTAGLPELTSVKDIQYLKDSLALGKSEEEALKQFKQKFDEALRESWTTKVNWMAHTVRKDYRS
In short: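 KINOMEscan binding platform; read-out is the inhibitor binding constant Kd (nM).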

[7] = molecular target: T5, PI3Kδ (Homo sapiens, UniProt O00329); test: Enzyme binding assay (KINOMEscan, DiscoveRx); conditions: PIK3Cδ_h
T5 construct: purchased DiscoveRx Corporation, San Diego (contract service, KINOMEscan)
T5 sequence (O00329 1-1044): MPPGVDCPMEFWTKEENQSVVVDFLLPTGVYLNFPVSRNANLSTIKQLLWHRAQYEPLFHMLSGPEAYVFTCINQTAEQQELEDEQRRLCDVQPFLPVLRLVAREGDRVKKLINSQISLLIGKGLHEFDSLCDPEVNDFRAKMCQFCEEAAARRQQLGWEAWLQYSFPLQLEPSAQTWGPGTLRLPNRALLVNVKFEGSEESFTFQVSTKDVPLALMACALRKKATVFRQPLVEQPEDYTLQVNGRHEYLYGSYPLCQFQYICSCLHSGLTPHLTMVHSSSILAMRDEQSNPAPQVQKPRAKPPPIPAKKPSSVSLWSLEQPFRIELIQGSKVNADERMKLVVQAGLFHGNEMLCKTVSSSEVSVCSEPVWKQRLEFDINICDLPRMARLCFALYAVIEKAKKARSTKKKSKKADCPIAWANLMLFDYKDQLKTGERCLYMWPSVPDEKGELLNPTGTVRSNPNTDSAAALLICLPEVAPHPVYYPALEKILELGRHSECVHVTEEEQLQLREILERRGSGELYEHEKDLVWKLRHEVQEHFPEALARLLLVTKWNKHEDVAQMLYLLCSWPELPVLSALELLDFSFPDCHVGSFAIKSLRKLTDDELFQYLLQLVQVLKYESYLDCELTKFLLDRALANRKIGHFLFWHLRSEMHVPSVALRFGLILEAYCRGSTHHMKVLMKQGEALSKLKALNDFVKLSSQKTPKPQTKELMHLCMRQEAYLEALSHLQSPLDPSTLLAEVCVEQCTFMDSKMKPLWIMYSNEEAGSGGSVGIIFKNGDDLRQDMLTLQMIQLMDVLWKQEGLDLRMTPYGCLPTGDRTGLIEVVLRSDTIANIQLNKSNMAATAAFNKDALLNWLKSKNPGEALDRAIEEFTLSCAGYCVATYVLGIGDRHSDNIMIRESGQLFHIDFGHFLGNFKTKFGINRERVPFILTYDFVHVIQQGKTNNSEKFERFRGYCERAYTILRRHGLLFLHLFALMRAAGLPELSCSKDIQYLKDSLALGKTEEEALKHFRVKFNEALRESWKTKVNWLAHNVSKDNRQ
In short: as §2

[8] = PC-3 cells, 60 min compound incubation, MSD ELISA

| IC50 [1, 8] [nM] | IC50 [2, 8] [nM] | melting point [°C] | Kd [3] [nM] | Kd [4] [nM] | Kd [5] [nM] | Kd [6] [nM] | IC50 [1] [nM] | IC50 [2] [nM] | Kd [7] [nM] | Structure (SMILES) |
| --- | --- | --- | --- | --- | --- | --- | --- | --- | --- | --- |
| – | – | 80 | 20400 | 3980 | 14100 | 21 | – | – | 2820 | CCOC(=O)CNC(=O)c1cc(C(C)Nc2cccc(F)c2)c2nc(N3CCOCC3)cnc2c1 (stereo not drawn) [Compound 392a] |
| – | – | 128 | > 30200 | 18600 | > 30200 | 166 | – | – | 7410 | CC(Nc1cccc(F)c1)c1cc(C(=O)N2CC[C@@H](O)C2)cc2ncc(N3CCOCC3)nc12 (single isomer, unassigned) [Compound 321b] |
| – | – | 123 | > 30200 | 23400 | 8130 | 324 | – | – | 17400 | [2H]C([2H])(O)C([2H])([2H])NC(=O)c1cc(C(C)Nc2cccc(F)c2)c2nc(N3CCOCC3)cnc2c1 (single isomer, unassigned) [Compound 408b] |
| – | – | 115 | 10500 | 2040 | 7940 | 7 | – | – | 724 | Cc1ccc(NC(C)c2cc(C(=O)NCCN(C)C)cc3ncc(N4CCOCC4)nc23)cc1F (single isomer, unassigned) [Compound 407a] |
| – | – | 105 | > 30200 | 4370 | 3800 | 339 | – | – | 2950 | Cc1ccc(NC(C)c2cc(C(=O)NCCN(C)C)cc3ncc(N4CCOCC4)nc23)cc1F (single isomer, unassigned) [Compound 407b] |
| – | – | 136 | > 30200 | 11500 | > 30200 | 69 | – | – | 5130 | CC(Nc1cccc(F)c1)c1cc(C(=O)N2CCC[C@H](O)C2)cc2ncc(N3CCOCC3)nc12 (single isomer, unassigned) [Compound 320b] |

The next lines start with the compound.

| Structure (SMILES) | IC50 [1, 8] [nM] | IC50 [2, 8] [nM] | melting point [°C] | Kd [3] [nM] | Kd [4] [nM] | Kd [5] [nM] | Kd [6] [nM] | IC50 [1] [nM] | IC50 [2] [nM] | Kd [7] [nM] |
| --- | --- | --- | --- | --- | --- | --- | --- | --- | --- | --- |
| C[C@@H](Nc1cc(F)cc(F)c1)c1cc(C(=O)NCCN(C)C)cc2ncc(N3CCOCC3)nc12 [Compound 184] | 2 | 2 | 157 | 18900 | 599 | 994 | 0.2 | – | – | – |
| CNCCN(C)C(=O)c1cc(C2CCCN2c2cc(F)cc(F)c2)c2nc(N3CCOCC3)cnc2c1 (stereo not drawn) [Compound 18] | – | – | 80 | – | – | – | 0.1 | 0.3 | 1 | 1 |
| Cc1c(F)cccc1NCc1cc(C(=O)NCCN(C)C)cc2ncc(N3CCOCC3)nc12 [Compound 328] | 9 | 9 | 98 | – | – | – | – | – | – | – |
| C[C@H](Nc1cc(F)cc(F)c1)c1cc(C(=O)NCCN(C)C)cc2ncc(N3CCOCC3)nc12 [Compound 185] | 148 | ~331 | 152 | – | 5750 | 4270 | 29 | – | – | – |
| C[C@H](Nc1cccc(F)c1)c1cc(C(=O)NCCO)cc2ncc(N3CCOCC3)nc12 [Compound 118] | > 513 | > 513 | 237 | – | 14200 | 2850 | 204 | – | – | 10200 |
| CC(Oc1ccc(F)c(F)c1)c1cc(C(=O)N2CCN3CCC[C@@H]3C2)cc2ncc(N3CCOCC3)nc12 (mixture of isomers) [Compound 375] | – | – | 80 | > 30200 | 18600 | > 30200 | 117 | – | – | 2190 |
| CN(C)C(=O)c1cc(C2CCCN2c2cc(F)cc(F)c2)c2nc(N3CCOCC3)cnc2c1 (stereo not drawn) [Compound 26] | ~1.35 | 4 | 80 | – | 174 | 1320 | 2 | – | – | 117 |
| COC(=O)c1cc(C(C)Nc2cccc(F)c2)c2nc(N3CCOCC3)cnc2c1 (single isomer, unassigned) [Compound 262a] | – | – | 199.7 | > 30200 | > 30200 | > 30200 | 1780 | – | – | 24500 |
| CC(Nc1cc(F)cc(F)c1)c1cc(C(=O)NCCN(C)C)cc2ncc(N3CCOCC3)nc12 (stereo not drawn) [Compound 183] | 3 | 6 | 145 | – | 2510 | 1740 | 0.1 | – | – | – |
| COC(=O)c1cc(C(C)Nc2ccc(C)c(F)c2)c2nc(N3CCOCC3)cnc2c1 (stereo not drawn) [Compound 293] | – | – | 186 | > 30200 | > 30200 | > 30200 | > 30200 | – | – | > 30200 |
| CC(Oc1cc(F)cc(F)c1)c1cc(C(=O)NCCO)cc2ncc(N3CCOCC3)nc12 (single isomer, unassigned) [Compound 200] | – | – | 115 | > 30200 | > 30200 | > 30200 | 2400 | – | – | > 30200 |
| CC(c1cc(CO)cc2ncc(N3CCOCC3)nc12)N(C)c1cccc(F)c1 (stereo not drawn) [Compound 111] | 162 | 389 | 80 | – | 6030 | 1480 | 16 | – | – | 1820 |
| COC(=O)c1cc(C(C)Nc2cccc(F)c2)c2nc(N3CCOCC3)cnc2c1 (single isomer, unassigned) [Compound 262b] | – | – | 199.5 | > 30200 | > 30200 | > 30200 | 11500 | – | – | > 30200 |
| CC(C)NCCNC(=O)c1cc(C(C)Nc2cc(F)c(F)c(F)c2)c2nc(N3CCOCC3)cnc2c1 (single isomer, unassigned) [Compound 283b] | – | – | 170 | > 30200 | > 30200 | 29500 | 1380 | – | – | 18200 |
